# According to patent publication US11952362B2, “Compositions and methods for treating epigenetic disease” (The Regents of the University of California, priority 2018, dated 2024):
# Structures can show the parent of a compound that is named as a salt.
# How the values were obtained:
# [1] = Water solubility of MJK compounds; type: physicochemical
# Source text: Solubility of MJK compounds: The development of an oral formulation for patients with auto-immune diseases, including Crohn's Disease, is preferential and less expensive, avoiding the need of hospitalization in comparison to the intracolonic (enema) administration. Thus, the water solubility and physical properties of the MJK compounds were examined. […] MJK-008 is the highest soluble MJK compound.
# TNBS colitis = TNBS colitis in mice; type: in vivo; conditions: i.c. administration, 50 mg/kg daily for 5 days, day 4, vs vehicle-treated mice
# Experimental: Male C57BL/6J mice 8-10 weeks old were purchased from The Jackson Laboratory (Sacramento, CA, USA). Mice were housed 4 per cage, maintained on a 12:12 hour light-dark cycle and given access to food and water ad libitum. Following an acclimatization period of 3 to 5 days, trinitrobenzene sulfonic acid (TNBS, Millipore Sigma, St. Louis, MO, USA) colitis was induced by intracolonic (i.c.) injection of 0.05 ml TNBS solution (5 mg in 40% ethanol) via a polyethylene cannula (BD Intramedic PE-20 tubing, Thermo Fisher Scientific, Santa Clara, CA, USA) inserted 3.5 cm from the anal verge under isoflurane anesthesia (4% in O2 induction, 2.5-3% maintenance). Control mice received an injection of 40% ethanol (0.05 ml, i.c.). To test the effectiveness of the HDAC analogs, mice received a daily injection (0.1 ml, i.c.) of a selective HDAC class II inhibitor analog (50 mg/kg MJK001-013) or vehicle (5% dimethyl sulfoxide, Millipore Sigma) beginning one day prior to TNBS colitis induction (day −1) for a period of 5 days. Separate groups of mice received HDAC inhibitors or vehicle administered by daily oral gavage (50 mg/kg, 0.25 ml, p.o.). All analogs tested were first dissolved in dimethyl sulfoxide (DMSO) with rapid vortexing and subsequent dilution to 5% in sterile phosphate buffered saline (PBS; Gibco, Thermo Fisher Scientific). Vehicle contained 5% DMSO in sterile PBS. Prior to use, all solids were stored in amber (light-blocking) storage vials at 4° C. On the first day of administration, stock solutions were prepared, aliquoted and stored at −20° C. for daily use. Upon thawing, each aliquot was vortexed prior to intracolonic injection (via a polyethylene cannula) or oral gavage (20 ga×38 mm, Instech, Thermo Fisher Scientific). Following all in vivo experiments, animals were euthanized on day 4 by CO2 inhalation and cervical dislocation and the distal colons removed for further study.
# Disease severity was assessed by weight loss and measurement of colon length and determination of clinical and histological damage scores on day 4 of the protocol. Briefly, clinical scores were calculated on a scale of 0-3 for degree of weight loss, bleeding, stool consistency and presence of rectal prolapse. Sections of colon (5 μm) fixed in 10% formalin, paraffin-embedded and stained with hematoxylin and eosin (H&E) were used for histological scoring using an AxioImager. Z1 microscope equipped with AxioVision software version 4.6 (Zeiss, Jena, Germany). Scoring was performed by two independent investigators blinded to the treatment conditions and resulting scores averaged. Scores were assigned based on the degree of crypt damage (0-4), polymorphonuclear neutrophil (PMN) infiltrate (0-3), erosion (0-3), and edema (0-3).
# Statistical analyses were performed using GraphPad Prism (Version 5.0a; GraphPad Software, La Jolla, CA, USA). Differences were determined by unpaired t-test, 1-way analysis of variance, or a 2-way analysis of variance with Tukey's post-test. A p value <0.05 was considered to be statistically significant. Data presented are means±SEM for n animals.
# Novel chemical HDAC inhibitors were developed aiming to target specific isoforms of the HDAC Class IIA members. Overall, as shown above, compounds have been synthesized, named MJK-001, -002, -003, -004, -005, -006, -007, -008, -009, -010, -011, -012 & -013. The effect of selective HDAC class IIA isoform inhibition during development of colitis in mice in vivo during TNBS administration was assessed. This mouse model is known to recapitulate many features of human Crohn's Disease. Mice received either an intracolonic (i.c.) injection or oral delivery (p.o.) of the MJK compounds once daily for a period of 5 days and health status, weight loss, and disease activity were monitored. Mice (male C57BL/6J, 8-10 wks old) are weighed and monitored daily. On the final day, blood, feces, and colonic samples for RNA, protein and histology are collected for downstream analysis. […]
# [2] = listed as MJK-005, hydrochloride, 50 mg/kg
# [3] = listed as MJK-013, hydrochloride, 50 mg/kg
structure (smiles),measurement,setting,value
"COc1cccc(C(=O)/C=C/c2ccc(/C=C/C(=O)NO)n2C)c1 [MJK002, (E)-N-hydroxy-3-(5-((E)-3-(3-methoxyphenyl)-3-oxoprop-1-en-1-yl)-1-methyl-1H-pyrrol-2-yl)acrylamide]",Solubility score,[1],more soluble than MJK-001 and MJK-003
same,clinical score,TNBS colitis; 50 mg/kg,♦♦♦
same,colon length,TNBS colitis; 50 mg/kg,♦
same,histological score,TNBS colitis; 50 mg/kg,did not yield significant differences and ns
same,clinical score,"TNBS colitis; listed as MJK-002, 50 mg/kg",statistical significance in the reduction of the clinical score
same,colon length,"TNBS colitis; listed as MJK-002, 50 mg/kg",increase of colon length
"Cn1c(/C=C/C(=O)NO)ccc1/C=C/C(=O)c1cccc(Cl)c1 [MJK003, (E)-3-(5-((E)-3-(3-chlorophenyl)-3-oxoprop-1-en-1-yl)-1-methyl-1H-pyrrol-2-yl)-N-hydrox-yacrylamide]",clinical score,TNBS colitis; 50 mg/kg,♦♦
same,colon length,TNBS colitis; 50 mg/kg,♦
same,histological score,TNBS colitis; 50 mg/kg,did not yield significant differences and ns
same,clinical score,"TNBS colitis; listed as MJK-003, 50 mg/kg",statistical significance in the reduction of the clinical score
same,colon length,"TNBS colitis; listed as MJK-003, 50 mg/kg",increase of colon length
"Cl.Cn1c(/C=C/C(=O)NO)ccc1/C=C/C(=O)c1ccsc1 [MJK005, (E)-N-hydroxy-3-(1-methyl-5-((E)-3-oxo-3-(thiophen-3-yl)prop-1-en-1-yl)-1H-pyrrol-2-yl)acrylamide hydrochloride]",clinical score,"TNBS colitis; hydrochloride, 50 mg/kg",♦♦♦
same,colon length,"TNBS colitis; hydrochloride, 50 mg/kg",ns
same,clinical score,TNBS colitis; [2],reduction in clinical scoring
same,colon length,TNBS colitis; [2],did not alter colon length
"Cn1cccc1C(=O)/C=C/c1ccc(/C=C/C(=O)NO)n1C [MJK007, (E)-N-Hydroxy-3-(1-methyl-5-((E)-3-(1-methyl-1H-pyrrol-2-yl)-3-oxoprop-1-en-1-yl)-1H-pyrrol-2-yl)acrylamide]",clinical score,TNBS colitis; 50 mg/kg,ns
same,colon length,TNBS colitis; 50 mg/kg,ns
same,clinical score,"TNBS colitis; listed as MJK-007, 50 mg/kg",no significant differences
same,colon length,"TNBS colitis; listed as MJK-007, 50 mg/kg",no significant differences
"Cn1c(/C=C/C(=O)NO)ccc1/C=C/C(=O)c1cccnc1 [MJK009, (E)-N-Hydroxy-3-(1-methyl-5-((E)-3-oxo-3-(pyridin-3-yl)prop-1-en-1-yl)-1H-pyrrol-2-yl)ac-rylamid p-toluenesulfonic acid salt]",Solubility score,[1],highest solubility
same,clinical score,TNBS colitis; 50 mg/kg,♦
same,colon length,TNBS colitis; 50 mg/kg,ns
same,clinical score,"TNBS colitis; listed as MJK-009, 50 mg/kg",reduction in clinical scoring
same,colon length,"TNBS colitis; listed as MJK-009, 50 mg/kg",did not alter colon length
"Cn1c(/C=C/C(=O)NO)ccc1/C=C/C(=O)c1ccccn1 [MJK010, (E)-N-Hydroxy-3-(1-methyl-5-((E)-3-oxo-3-(pyridin-2-yl)prop-1-en-1-yl)-1H-pyrrol-2-yl)acrylamide]",clinical score,TNBS colitis; 50 mg/kg,ns
same,colon length,TNBS colitis; 50 mg/kg,ns
same,clinical score,"TNBS colitis; listed as MJK-010, 50 mg/kg",no significant differences
same,colon length,"TNBS colitis; listed as MJK-010, 50 mg/kg",no significant differences
"Cn1c(/C=C/C(=O)NO)ccc1/C=C/C(=O)c1ccncc1 [MJK011, (E)-N-hydroxy-3-(1-methyl-5-((E)-3-oxo-3-(pyridin-4-yl)prop-1-en-1-yl)-1H-pyrrol-2-yl)ac-rylamide]",Solubility score,[1],worst solubility
same,clinical score,TNBS colitis; 50 mg/kg,♦♦♦
same,colon length,TNBS colitis; 50 mg/kg,ns
same,clinical score,"TNBS colitis; listed as MJK-011, 50 mg/kg",reduction in clinical scoring
same,colon length,"TNBS colitis; listed as MJK-011, 50 mg/kg",did not alter colon length
"Cn1c(/C=C/C(=O)NO)ccc1/C=C/C(=O)c1ccco1 [MJK012, (E)-3-(5-((E)-3-(Furan-2-yl)-3-oxoprop-1-en-1-yl)-1-methyl-1H-pyrrol-2-yl)-N-hydroxyacrylamide]",clinical score,TNBS colitis; 50 mg/kg,ns
same,colon length,TNBS colitis; 50 mg/kg,ns
same,clinical score,"TNBS colitis; listed as MJK-012, 50 mg/kg",no significant differences
same,colon length,"TNBS colitis; listed as MJK-012, 50 mg/kg",no significant differences
"Cl.Cn1c(/C=C/C(=O)NO)ccc1/C=C/C(=O)c1cnccn1 [MJK013, (E)-N-Hydroxy-3-(1-methyl-5-((E)-3-oxo-3-(pyrazin-2-yl)prop-1-en-1-yl)-1H-pyrrol-2-yl)acrylamide hydrochloride]",clinical score,"TNBS colitis; hydrochloride, 50 mg/kg",ns
same,colon length,"TNBS colitis; hydrochloride, 50 mg/kg",ns
same,clinical score,TNBS colitis; [3],no significant differences
same,colon length,TNBS colitis; [3],no significant differences
